Columns and labels:
[1] = Toxicology and safety pharmacology studies in rats; details: Sprague–Dawley rats, data not shown
[2] = Toxicology and safety pharmacology studies in dogs; details: beagle dogs, data not shown
[3] = system: ID8 Trp53−/− Brca2−/− ovarian carcinoma cells; details: mouse, in vivo, 10 mg/kg
Protocol: After 5 (IP model) or 10 (SC model) weeks of tumor growth, mice received an IV bolus dose of TAX2-Cy5 at 10 mg/kg BW in injectable saline solution. After in vivo imaging and mouse euthanasia, subcutaneous tumor or peritoneal tumor mass and metastatic nodules, were collected and imaged with instrument sensitivity set to “Normal” using the same protocol as described above for healthy mice. TAX2-Cy5 concentration was calculated as described above.

[4] = system: ID8 Trp53−/− Brca2−/− cells; assay: TAX2 efficacy alone or in sequential combination with olaparib, metastatic peritoneal carcinomatosis model; assay type: in vivo, C57BL/6 J mice; details: for Mouse survival, prolonged olaparib design: from day 7 post inoculation olaparib 50 mg/kg per os daily 5 weeks, then TAX2 30 mg/kg IV three times a week, n = 7–11 per group, p = 0.0014 post discontinuation, median survival p = 0.0205; for Animal survival versus controls (Kaplan–Meier): same regimens as Fig. 6b, Gehan–Breslow–Wilcoxon test, TAX2 p = 0.0347 vs controls; for Median survival: treatment from day after IP inoculation, TAX2 30 mg/kg IV 3 times weekly for 6 weeks or olaparib 50 mg/kg per os daily for 2 weeks, n = 9–19 per group, end point 20% body weight gain
Protocol: Eight-week-old C57BL/6 J mice were IP injected with 2 × 10^6 ID8 Trp53^−/− Brca2^−/− cells in 300 µL HBSS. For mouse treatments, TAX2 peptide was IV injected at 30 to 100 mg/kg, three times a week; olaparib (catalog no. M1664, AbMole, TX, USA) was given per os at a 50 mg/kg BW dose, daily. Two different sequential treatments were performed. In the first one, mice were treated one day after tumor inoculation with olaparib for 2 weeks followed by 4 weeks of TAX2. In the second one, mice were randomized 7 days after tumor inoculation and first treated with olaparib daily for 5 weeks or an identical volume of olaparib vehicle composed of 10% (2-hydroxypropyl)-β-cyclodextrin and 10% DMSO in D-PBS buffer. Mice were then sequentially treated with TAX2 for a maximum of 3 weeks. […] Mice were weighed twice or thrice a week and abdominal distension was measured using a digital caliper. Tumor burden was monitored using body weight change as a measure of ascitic fluid buildup post inoculation as previously described in the same model. Gain of 20% body weight was considered as the end point for survival analysis. In this orthotopic model, it is impossible to determine whether the absence of tumor uptake is treatment related or not. Therefore, mice showing no signs of tumor development (carcinosis, nodules, or ascites) at the time of euthanasia were excluded to avoid misinterpretation of the results.
Two-tailed Pearson and Spearman tests were used to assess the correlation between two linear or monotonic variables, respectively, and Mann–Whitney test was used where appropriate. Mouse survival curves were generated using Kaplan–Meier analysis with Gehan–Breslow–Wilcoxon tests as previously reported for ID8 syngeneic model. All graphs and statistics were generated with Prism (GraphPad Software, La Jolla, CA) using the statistical tests and sample sizes indicated in the figure legends.

SMILES	Tolerability after systemic administration [1]	Tolerability after systemic administration [2]	Localization at tumor sites [3]	Mice surviving for the duration of the experimental protocol (weak peritoneal carcinomatosis) ([4]; TAX2 30 mg/kg IV 3 times weekly for 6 weeks)	Mouse survival, prolonged olaparib design [4]	Animal survival versus controls (Kaplan–Meier) [4]	Median survival ([4]; control 38 days)	Mice exhibiting no response to olaparib (tumor burden) ([4]; olaparib 50 mg/kg per os daily for 2 weeks, n = 20, tumor burden by body weight change)	Median survival of olaparib-resistant mice ([4]; olaparib alone 50 mg/kg per os daily for 2 weeks, unresponsive mice n = 14, control 38 days)
CC(C)C[C@@H]1NC(=O)[C@H](CC(C)C)NC(=O)[C@H](CCC(N)=O)NC(=O)[C@H](CO)NC(=O)[C@H](C(C)C)NC(=O)[C@H](CCC(=O)O)NC(=O)[C@@H](N)CSSC[C@@H](C(=O)O)NC(=O)[C@H](C)NC(=O)[C@H](CC(=O)O)NC(=O)CNC(=O)[C@H](CCCCN)NC1=O [TAX2]	very well tolerated	very well tolerated	localization of TAX2 at tumor sites	1 out of 9	further improved survival	modestly but significantly extended the survival rate	44 days		
O=C(c1cc(Cc2n[nH]c(=O)c3ccccc23)ccc1F)N1CCN(C(=O)C2CC2)CC1 [olaparib]					increased mouse survival	failed to improve animal survival	43 days	75%	41 days
